Converted amounts (≈) assume the structure as drawn. The source made the active and inactive calls. The rule behind the calls is not given here.

The subject of data set [1] is Duck hepatitis B virus. Put plainly: Antiviral activity against Duck hepatitis B virus infected in pekin duck primary hepatocytes assessed as inhibition of viral replication at 10 ug/mL. Conditions: Hepatocyte, in Anas platyrhynchos. It counts as functional.
Data set [2] has as its system Duck hepatitis B virus. Put plainly: Antiviral activity against Duck hepatitis B virus infected in pekin duck primary hepatocytes assessed as inhibition of viral replication. It counts as functional, organism-based. Conditions: Hepatocyte.
Data set [3] deals with Hepatitis B virus. Put plainly: Antiviral activity against Hepatitis B virus infected in human HepG2(2.2.15) cells assessed as inhibition of viral replication at 10 ug/mL. It counts as functional.
Data set [4] relates to Hepatitis B virus. Put plainly: Antiviral activity against Hepatitis B virus infected in human HepG2(2.2.15) cells assessed as inhibition of viral replication. It counts as functional, organism-based.
The test system of data set [5] is Hepatitis C virus. The data set can be described thus: Antiviral activity against Hepatitis C virus subtype 1a infected in human HuH7 cells at 20 ug/mL after 2 days by q-PCR analysis. Conditions: Huh-7, 48 h. It counts as functional, Hepacivirus hominis.
Data set [6] is described as follows: Cytotoxicity against human HuH7 cells after 2 days by XTT assay. It counts as cell-based, Huh-7.
Data set [7] has as its system Hepatitis C virus. Put plainly: Antiviral activity against Hepatitis C virus subtype 1a infected in human HuH7 cells after 2 days by q-PCR analysis. It counts as functional, organism-based, Hepacivirus hominis. Conditions: Huh-7, 48 h.
Data set [8] concerns Hepatitis C virus. Put plainly: Antiviral activity against Hepatitis C virus subtype 1a infected in human HuH7 cells at 20 to 50 ug/mL after 2 days by q-PCR analysis. It counts as functional, Hepacivirus hominis, Huh-7.
In data set [9] the test system is Hepatitis C virus. The data set can be described thus: Antiviral activity against Hepatitis C virus subtype 1a infected in human HuH7 cells at 10 ug/mL after 2 days by q-PCR analysis. It counts as functional, Hepacivirus hominis. Conditions: Huh-7, 48 h.
Data set [10] relates to Hepatitis C virus. Put plainly: Antiviral activity against Hepatitis C virus subtype 1a infected in human HuH7 cells at 5 ug/mL after 2 days by q-PCR analysis. It counts as functional, Hepacivirus hominis. Conditions: Huh-7, 48 h.
The test system of data set [11] is Hepatitis C virus. Put plainly: Potentiation of ribavirin antiviral activity against Hepatitis C virus subtype 1a infected in human HuH7 cells at 5 ug/mL after 2 days by q-PCR analysis. It counts as functional, organism-based. Conditions: Hepacivirus hominis, Huh-7.
Data set [12] deals with Hepatitis C virus. The data set can be described thus: Ratio of ribavirin EC50 to compound EC50 for Hepatitis C virus subtype 1a. It counts as functional, Hepacivirus hominis.
Data set [13] deals with Duck hepatitis B virus. The data set can be described thus: Antiviral activity against Duck hepatitis B virus infected in pekin duck primary hepatocytes assessed as inhibition of viral replication at 0.5 to 1 ug/mL. It counts as functional, Hepatocyte.
For data set [14], the system named is Hepatitis B virus. The data set can be described thus: Antiviral activity against Hepatitis B virus infected in human HepG2(2.2.15) cells assessed as inhibition of viral replication at 0.5 to 1 ug/mL. It counts as functional.

`N=c1ccn([C@H]2CC[C@@H](C(=O)O)O2)c(=O)[nH]1`: the inhibition at 10 µg/mL in [1] came out at 80%; in data set [3] it was 60%. Moreover, the EC50 in data set [2] is 0.5 mg/L (≈ 2.22 µM); in data set [4] it was 5 mg/L (≈ 22.2 µM). The compound also had an inhibition at 20 µg/mL in data set [5] of 0%. Further, the half-maximal cytotoxic concentration (CC50) at 48 h in data set [6] was over 250 mg/L.

Regarding `[N-]=[N+]=N[C@H]1C[C@H](n2ccc(=O)[nH]c2=O)O[C@@H]1C(=O)O`, the inhibition at 10 µg/mL in [1] amounted to 62%; in [3], 50%. Further, the EC50 is 5 mg/L (≈ 18.7 µM) in [2], 10 mg/L (≈ 37.4 µM) in data set [4] and over 20 mg/L in [7]. At 20 µg/mL the inhibition in data set [5] was 40%. The CC50 at 48 h in [6] is over 250 mg/L.

For the compound `O=C(O)[C@@H]1CC[C@H](n2ccc(=O)[nH]c2=O)O1`, the inhibition at 10 µg/mL in data set [1] and in data set [3] was 0% throughout. In addition, in data set [5], the inhibition at 20 µg/mL worked out at 0%. This compound yielded a CC50 at 48 h in data set [6] of over 250 mg/L.

Consider `NC(=O)c1ncn([C@@H]2O[C@H](CO)[C@@H](O)[C@H]2O)n1` [RIBAVIRIN], for which the “inhibition (INH)” value in data set [8] is recorded as 50%. Further, the inhibition at 10 µg/mL in [9] stood at 35%. This compound also came in with an EC50 in data set [7] of 20 mg/L (≈ 81.9 µM).

With `Cc1cn([C@H]2C=C[C@@H](C(=O)O)O2)c(=O)[nH]c1=O`, the inhibition at 10 µg/mL was 63% in data set [1] and 58% in data set [3]. Besides, the EC50 in data set [2] worked out at 2.5 mg/L (≈ 10.5 µM); in data set [4], 5 mg/L (≈ 21 µM). Further, 20 µg/mL produced 0% inhibition in [5]. Also, the CC50 at 48 h in data set [6] is over 250 mg/L.

Turning to `Cc1cn([C@H]2CC=C(C(=O)O)O2)c(=O)[nH]c1=O`, the inhibition at 10 µg/mL in data set [1] is 65%; in data set [3], 61%. The figures for the EC50 in data set [2], in [4] and in [7] were 2.5 mg/L (≈ 10.5 µM), 5 mg/L (≈ 21 µM) and 20 mg/L (≈ 84 µM), respectively. In addition, in data set [5], the inhibition at 20 µg/mL is 50%. The compound further gave a CC50 at 48 h in data set [6] of over 250 mg/L.

As for `COC(=O)[C@@H]1CC[C@H](n2ccc(N)nc2=O)O1`, the inhibition at 10 µg/mL in [1] came to 90%; in [3], 63%; in data set [9], 50%. For the same compound, the EC50 in data set [2] stood at 0.5 mg/L (≈ 2.09 µM); in [4] it was 5 mg/L (≈ 20.9 µM); in [7], 10 mg/L (≈ 41.8 µM). Also, the inhibition at 5 µg/mL in data set [10] amounted to 38%. In data set [11], the outcome was Active. In data set [6], this compound returned a CC50 at 48 h of over 250 mg/L. For the same compound, the “Ratio EC50” value in data set [12] is on record as over 2.

For the compound `Nc1ccn([C@@H]2CS[C@H](CO)O2)c(=O)n1` [LAMIVUDINE], the “inhibition (INH)” value in data set [13] was determined as 96%; in data set [14], 88%.

Regarding `Cc1cn([C@H]2C[C@H](N=[N+]=[N-])[C@@H](C(=O)O)O2)c(=O)[nH]c1=O`, the inhibition at 10 µg/mL was determined as 55% in data set [1] and 50% in [3]. The EC50 in [2] came to 5 mg/L (≈ 17.8 µM); in data set [4] it was 10 mg/L (≈ 35.6 µM). Also, testing at 20 µg/mL in data set [5] gave an inhibition of 30%. This compound registered a CC50 at 48 h in data set [6] of over 250 mg/L.

For `CC(=O)O[C@H]1C[C@H](n2cc(F)c(=O)[nH]c2=O)O[C@@H]1C(=O)O`, the inhibition at 10 µg/mL in [1] and in data set [3] was 0% throughout. The compound further gave an inhibition at 20 µg/mL in data set [5] of 0%. Moreover, in data set [6], the CC50 at 48 h is over 250 mg/L.
